Measurements as given in patent US11235001B2, “RUNX inhibitor” (KYOTO UNIVERSITY, priority 2016, dated 2022).

What was measured:
A549 = experiment: Cell viability, lung adenocarcinoma A549; assay type: cell-based, human; conditions: A549 (EGFR wild-type p53 wild-type), 48 hours
Half-life in mouse = conditions: in vivo

SMILES: CN(C)CCCNC(=O)c1cc(NC(=O)c2cc(NC(=O)c3cc(NC(=O)c4cc(NC(=O)CCCNC(=O)c5nc(NC(=O)c6nc(NC(=O)c7cc(NC(=O)c8nc(NC(=O)CCNC(=O)CCCc9ccc(N(CCCl)CCCl)cc9)cn8C)cn7C)cn6C)cn5C)cn4C)cn3C)cn2C)cn1C [Chb-M′]
- IC50 compared with the EGFR inhibitor (gefitinib) (A549): lower IC50 values
- half-life (Half-life in mouse): ~5 h
